In US11702404B2, “GLP-1R modulating compounds” (priority 2019, dated 2023):
Like-named read-outs stand apart in the source and are kept apart here.

How the values were obtained:
GLP-1R = GLP-1R (Homo sapiens, UniProt P43220); test: GLP-1R activation: cAMP increase in CHO cells stably expressing GLP-1R; format: cell-based
[1] = Microsomal stability, human liver microsomes (predicted hepatic clearance); settings: predicted from in vitro microsomal stability data
[2] = cAMP increase, CHO cells stably expressing GLP-1R, 10 point dose response, 30 minutes incubation, read-out: EC50

Sequence of GLP-1R (P43220 24-463): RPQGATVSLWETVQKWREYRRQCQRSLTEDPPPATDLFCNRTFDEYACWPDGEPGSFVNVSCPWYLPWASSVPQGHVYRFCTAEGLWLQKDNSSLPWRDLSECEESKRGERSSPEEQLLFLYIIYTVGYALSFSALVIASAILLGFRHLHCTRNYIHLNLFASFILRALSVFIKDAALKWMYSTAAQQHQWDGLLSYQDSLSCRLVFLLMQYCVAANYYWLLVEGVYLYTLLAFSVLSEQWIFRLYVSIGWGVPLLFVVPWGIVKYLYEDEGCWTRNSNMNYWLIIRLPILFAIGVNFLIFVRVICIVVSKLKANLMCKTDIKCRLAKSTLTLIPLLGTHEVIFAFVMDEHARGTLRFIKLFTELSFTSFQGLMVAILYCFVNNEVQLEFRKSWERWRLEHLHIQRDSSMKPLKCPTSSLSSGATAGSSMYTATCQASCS

With COCCn1c(Cc2ccc(-c3cccc(OCc4cccc(OC(F)F)c4OC)n3)cc2F)nc2ccc(C(=O)O)cc21 [Example 140, 2-(4-(6-((3-(difluoromethoxy)-2-methoxybenzyl)oxy)pyridin-2-yl)-2-fluorobenzyl)-1-(2-methoxyethyl)-1H-benzo[d]imidazole-6-carboxylic acid] the EC50 (GLP-1R; [2]) was 197 nM and the “Predicted Hepatic Clearance (Pred. Cl.)” value [1] was 9.33 mL/min/kg.

In the case of N#Cc1ccc(COc2cccc(-c3ccc(Cc4nc5ccc(C(=O)O)cc5n4Cc4cncn4C4CC4)c(F)c3)c2)c(F)c1 [Example 8, 2-((3′-((4-cyano-2-fluorobenzyl)oxy)-3-fluoro-[1,1′-biphenyl]-4-yl)methyl)-1-((1-cyclopropyl-1H-imidazol-5-yl)methyl)-1H-benzo[d]imidazole-6-carboxylic acid], the EC50 (GLP-1R; [2]) is reported as 26.4 nM and the “Predicted Hepatic Clearance (Pred. Cl.)” value [1] is reported as 4.33 mL/min/kg.

For N#Cc1ccc(COc2cccc(-c3cc(F)c(Cc4nc5c(F)cc(C(=O)O)cc5n4CCOC4CC4)cc3F)n2)c(F)c1 [Example 894], the EC50 (GLP-1R; [2]) was 2.68 nM and the “Predicted Hepatic Clearance (Pred. Cl.)” value [1] was 4.17 mL/min/kg.

With O=C(O)c1ccc2nc(Cc3ccc(-c4cccc(OCc5ccc(Cl)cc5F)n4)c(F)c3)n(CC3(CF)CC3)c2n1 [Example 321, 2-(4-(6-((4-chloro-2-fluorobenzyl)oxy)pyridin-2-yl)-3-fluorobenzyl)-3-((1-(fluoromethyl)cyclopropyl)methyl)-3H-imidazo[4,5-b]pyridine-5-carboxylic acid] the EC50 (GLP-1R; [2]) was 0.27 nM and the “Predicted Hepatic Clearance (Pred. Cl.)” value [1] was 6.33 mL/min/kg.

In the case of N#Cc1ccc(COc2cccc(-c3ccc(Cc4nc5cc(F)c(C(=O)O)cc5n4C[C@@H]4CCO4)c(F)c3)n2)c(F)c1 [Example 206], the EC50 (GLP-1R; [2]) is reported as 0.86 nM and the “Predicted Hepatic Clearance (Pred. Cl.)” value [1] is reported as 3.5 mL/min/kg.

For COCCn1c(Cc2cc(F)c(-c3cccc(OCc4ccc(-c5ccccn5)cc4F)n3)cc2F)nc2ccc(C(=O)O)cc21 [Example 910], the EC50 (GLP-1R; [2]) was 33.4 nM and the “Predicted Hepatic Clearance (Pred. Cl.)” value [1] was 2.83 mL/min/kg.

With CC1(C)COC1Cn1c(Cc2ccc(-c3cccc(OCc4ccc(C#N)cc4F)n3)cc2F)nc2ccc(C(=O)O)cc21 (stereo not drawn) [Example 264, 2-(4-(6-((4-cyano-2-fluorobenzyl)oxy)pyridin-2-yl)-2-fluorobenzyl)-1-((3,3-dimethyloxetan-2-yl)methyl)-1H-benzo[d]imidazole-6-carboxylic acid] the EC50 (GLP-1R; [2]) was 26.2 nM and the “Predicted Hepatic Clearance (Pred. Cl.)” value [1] was 4 mL/min/kg.

In the case of N#Cc1ccc(COc2cccc(-c3cc(F)c(Cc4nc5ccc(C(=O)O)cc5n4CC4CCCCO4)cc3F)n2)c(F)c1 (stereo not drawn) [Example 640], the EC50 (GLP-1R; [2]) is reported as 16.6 nM and the “Predicted Hepatic Clearance (Pred. Cl.)” value [1] is reported as 8.5 mL/min/kg.

With COCCn1c(Cc2cc(F)c(-c3cccc(OCc4ccc(C(F)F)cc4F)n3)cc2F)nc2c(F)cc(C(=O)O)cc21 [Example 635] the EC50 (GLP-1R; [2]) was 0.46 nM and the “Predicted Hepatic Clearance (Pred. Cl.)” value [1] was 1.83 mL/min/kg.

With N#Cc1ccc(COc2cccc(-c3cc(F)c(Cc4nc5ccc(C(=O)O)cc5n4Cc4ccns4)cc3F)n2)c(F)c1 [Example 579, 2-(4-(6-((4-cyano-2-fluorobenzyl)oxy)pyridin-2-yl)-2,5-difluorobenzyl)-1-(isothiazol-5-ylmethyl)-1H-benzo[d]imidazole-6-carboxylic acid] the EC50 (GLP-1R; [2]) was 0.35 nM and the “Predicted Hepatic Clearance (Pred. Cl.)” value [1] was 16 mL/min/kg.

With COCCn1c(Cc2cc(F)c(-c3cccc(OCc4ccc(Br)c5c4COC5)n3)cc2F)nc2ccc(C(=O)O)cc21 [Example 874] the EC50 (GLP-1R; [2]) was 34.7 nM and the “Predicted Hepatic Clearance (Pred. Cl.)” value [1] was 1.83 mL/min/kg.

With COc1cc(Cl)ccc1COc1nccc(-c2ccc(Cc3nc4ccc(C(=O)O)cc4n3CC3(CC#N)CC3)cc2F)n1 [Example 93, 2-(4-(2-((4-chloro-2-methoxybenzyl)oxy)pyrimidin-4-yl)-3-fluorobenzyl)-1-((1-(cyanomethyl)cyclopropyl)methyl)-1H-benzo[d]imidazole-6-carboxylic acid] the EC50 (GLP-1R; [2]) was 0.28 nM and the “Predicted Hepatic Clearance (Pred. Cl.)” value [1] was 14.5 mL/min/kg.

In the case of N#Cc1ccc(COc2cccc(-c3cc(F)c(Cc4nc5c(F)cc(C(=O)O)cc5n4CC45CC(CO4)C5)cc3F)n2)c(F)c1 [Example 649], the EC50 (GLP-1R; [2]) is reported as 0.2 nM and the “Predicted Hepatic Clearance (Pred. Cl.)” value [1] is reported as 5.83 mL/min/kg.

In the case of C[C@@H](C1CC1)n1c(Cc2ccc(-c3cccc(OCc4ccc(C#N)cc4F)n3)cc2F)nc2ccc(C(=O)O)cc21 [Example 220, (S)-2-(4-(6-((4-cyano-2-fluorobenzyl)oxy)pyridin-2-yl)-2-fluorobenzyl)-1-(1-cyclopropylethyl)-1H-benzo[d]imidazole-6-carboxylic acid], the EC50 (GLP-1R; [2]) is reported as 37.8 nM and the “Predicted Hepatic Clearance (Pred. Cl.)” value [1] is reported as 6.5 mL/min/kg.

In the case of N#Cc1ccc(COc2cccc(-c3cc(F)c(Cc4nc5ccc(C(=O)O)cc5n4[C@H]4CCNC4=O)cc3F)n2)c(F)c1 [Example 630], the EC50 (GLP-1R; [2]) is reported as 39.4 nM and the “Predicted Hepatic Clearance (Pred. Cl.)” value [1] is reported as 2.67 mL/min/kg.

For N#Cc1ccc(COc2cccc(-c3ccc(Cc4nc5ccc(C(=O)O)cc5n4Cc4ncco4)nc3)n2)c(F)c1 [Example 601, 2-((6-((4-cyano-2-fluorobenzyl)oxy)-[2,3′-bipyridin]-6′-yl)methyl)-1-(oxazol-2-ylmethyl)-1H-benzo[d]imidazole-6-carboxylic acid], the EC50 (GLP-1R; [2]) was 31.7 nM and the “Predicted Hepatic Clearance (Pred. Cl.)” value [1] was 3.83 mL/min/kg.

In the case of CO[C@H]1C[C@H](n2c(Cc3cc(F)c(-c4cccc(OCc5ccc(C#N)cc5F)n4)cc3F)nc3ccc(C(=O)O)cc32)C1 [Example 567, 2-(4-(6-((4-cyano-2-fluorobenzyl)oxy)pyridin-2-yl)-2,5-difluorobenzyl)-1-((1r,3r)-3-methoxycyclobutyl)-1H-benzo[d]imidazole-6-carboxylic acid], the EC50 (GLP-1R; [2]) is reported as 1130 nM and the “Predicted Hepatic Clearance (Pred. Cl.)” value [1] is reported as 7.67 mL/min/kg.

In the case of N#Cc1ccc(COc2cccc(-c3ccc(Cc4nc5ccc(C(=O)O)cc5n4CC45CCC(CC4)O5)c(F)c3)n2)c(F)c1 [Example 231, 1-(7-oxabicyclo[2.2.1]heptan-1-ylmethyl)-2-(4-(6-((4-cyano-2-fluorobenzyl)oxy)pyridin-2-yl)-2-fluorobenzyl)-1H-benzo[d]imidazole-6-carboxylic acid], the EC50 (GLP-1R; [2]) is reported as 35.4 nM and the “Predicted Hepatic Clearance (Pred. Cl.)” value [1] is reported as 8.17 mL/min/kg.

For COCCn1c(Cc2ccc(-c3cccc(OCc4ccc(C#N)cc4F)n3)cc2F)nc2c(OC)cc(C(=O)O)cc21 [Example 345, 2-(4-(6-((4-cyano-2-fluorobenzyl)oxy)pyridin-2-yl)-2-fluorobenzyl)-4-methoxy-1-(2-methoxyethyl)-1H-benzo[d]imidazole-6-carboxylic], the EC50 (GLP-1R; [2]) was 175 nM and the “Predicted Hepatic Clearance (Pred. Cl.)” value [1] was 3.83 mL/min/kg.

In the case of COCCn1c(C2(c3ccc(-c4cccc(OCc5ccc(C#N)cc5F)n4)cc3)CC2)nc2ccc(C(=O)O)cc21 [Example 32, 2-(1-(4-(6-((4-cyano-2-fluorobenzyl)oxy)pyridin-2-yl)phenyl)cyclopropyl)-1-(2-methoxyethyl)-1H-benzo[d]imidazole-6-carboxylic acid], the EC50 (GLP-1R; [2]) is reported as over 1000 nM and the “Predicted Hepatic Clearance (Pred. Cl.)” value [1] is reported as 7.83 mL/min/kg.

With COCCn1c(Cc2ccc(-c3cccc(OCc4cccc5c4OC(C)(C)C5)n3)cc2F)nc2ccc(C(=O)O)cc21 [Example 152, 2-(4-(6-((2,2-dimethyl-2,3-dihydrobenzofuran-7-yl)methoxy)pyridin-2-yl)-2-fluorobenzyl)-1-(2-methoxyethyl)-1H-benzo[d]imidazole-6-carboxylic acid] the EC50 (GLP-1R; [2]) was 130 nM and the “Predicted Hepatic Clearance (Pred. Cl.)” value [1] was 12 mL/min/kg.

For N#CCC1(Cn2c(Cc3cc(F)c(-c4cccc(OCc5ccc(C#N)cc5F)n4)cc3F)nc3ccc(C(=O)O)cc32)CC1 [Example 428, 2-(4-(6-((4-cyano-2-fluorobenzyl)oxy)pyridin-2-yl)-2,5-difluorobenzyl)-1-((1-(cyanomethyl)cyclopropyl)methyl)-1H-benzo[d]imidazole-6-carboxylic acid], the EC50 (GLP-1R; [2]) was 0.13 nM and the “Predicted Hepatic Clearance (Pred. Cl.)” value [1] was 8.92 mL/min/kg.

With COCCn1c(Cc2cc(F)c(-c3cccc(OCc4ccc(C(F)(F)F)nc4)n3)cc2F)nc2ccc(C(=O)O)cc21 [Example 861] the EC50 (GLP-1R; [2]) was 16.5 nM and the “Predicted Hepatic Clearance (Pred. Cl.)” value [1] was 1.83 mL/min/kg.

With COCCn1c(Cc2cc(F)c(-c3cccc(OCc4ccc(C)cc4)n3)cc2F)nc2ccc(C(=O)O)cc21 [Example 814] the EC50 (GLP-1R; [2]) was 2.14 nM and the “Predicted Hepatic Clearance (Pred. Cl.)” value [1] was 6.17 mL/min/kg.

For O=C(O)c1ccc2nc(Cc3cc(F)c(-c4nccc(OCc5ccc(C(F)(F)F)cc5F)n4)cc3F)n(C[C@@H]3CCO3)c2c1 [Example 754], the EC50 (GLP-1R; [2]) was 0.15 nM and the “Predicted Hepatic Clearance (Pred. Cl.)” value [1] was 6 mL/min/kg.

For COCCn1c(Cc2ccc(-c3cccc(OCc4ccc(C#N)cc4F)n3)cc2F)nc2ccc(CC(=O)O)cc21 [Example 386, 2-(2-(4-(6-((4-cyano-2-fluorobenzyl)oxy)pyridin-2-yl)-2-fluorobenzyl)-1-(2-methoxyethyl)-1H-benzo[d]imidazol-6-yl)acetic acid], the EC50 (GLP-1R; EC50 (nM)) was 157 nM and the “Predicted Hepatic Clearance (Pred. Cl.)” value [1] was 2 mL/min/kg.

In the case of N#Cc1ccc(COc2cccc(-c3ccc(Cc4nc5c(F)cc(C(=O)O)cc5n4C[C@@H]4CCO4)cc3F)n2)c(F)c1 [Example 492, (S)-2-(4-(6-((4-cyano-2-fluorobenzyl)oxy)pyridin-2-yl)-3-fluorobenzyl)-4-fluoro-1-(oxetan-2-ylmethyl)-1H-benzo[d]imidazole-6-carboxylic acid], the EC50 (GLP-1R; [2]) is reported as 5.16 nM and the “Predicted Hepatic Clearance (Pred. Cl.)” value [1] is reported as under 1.83 mL/min/kg.

With Cc1nc(Cn2c(Cc3cc(F)c(-c4cccc(OCc5ccc(C#N)cc5F)n4)cc3F)nc3ccc(C(=O)O)cc32)oc1C [Example 615] the EC50 (GLP-1R; [2]) was 1420 nM and the “Predicted Hepatic Clearance (Pred. Cl.)” value [1] was 2.33 mL/min/kg.

For COCCn1c(Cc2ccc(-c3cccc(OCn4ccc(C(N)=O)cc4=O)n3)cc2F)nc2ccc(C(=O)O)cc21 [Example 502, 2-(4-(6-((4-carbamoyl-2-oxopyridin-1(2H)-yl)methoxy)pyridin-2-yl)-2-fluorobenzyl)-1-(2-methoxyethyl)-1H-benzo[d]imidazole-6-carboxylic acid], the EC50 (GLP-1R; [2]) was 2380 nM and the “Predicted Hepatic Clearance (Pred. Cl.)” value [1] was 2.67 mL/min/kg.

With N#Cc1ccc(COc2cccc(-c3cc(F)c(Cc4nc5ccc(C(=O)O)cc5n4CC45CC(CO4)C5)cc3F)n2)c(F)c1 [Example 898, 1-((2-oxabicyclo[2.1.1]hexan-1-yl)methyl)-2-(4-(6-((4-cyano-2-fluorobenzyl)oxy)pyridin-2-yl)-2,5-difluorobenzyl)-1H-benzo[d]imidazole-6-carboxylic acid] the EC50 (GLP-1R; [2]) was 1.5 nM and the “Predicted Hepatic Clearance (Pred. Cl.)” value [1] was 9.67 mL/min/kg.
